# Measurements reported in PMC4389225, “Triaminopyrimidine is a fast-killing and long-acting antimalarial clinical candidate” (Nature Communications, 2015).
# Where “and” joins values, the source holds several entries; their conditions need not be identical. Equal values may be shown once. Read-outs that look alike come from different tables or passages of the source.
# Columns and labels:
# [1] = test system: Dd2; assay: SYBR green growth assay, Dd2 (parental); type: cell-based, P. falciparum; settings: mean ± SD
# Procedure: (§1) To eliminate overlapping mode of action with known targets, cross-resistance testing of representative TAPs against drug-resistant lines with well-characterized mutations in Pf dihydroorotate dehydrogenase, Pf heat-shock protein 90, Pf chloroquine resistance transporter[25] or Pf cytochrome b reduction site[26] was performed. […] Assays were carried out in 384-well format with three technical replicates within an assay day and biological replicates carried out on three different assay days to assign a final EC50.
# (§2) A representative TAP (compound 6) was tested for its activity against a panel of P. falciparum strains known to harbour mutations conferring resistance to antimalarial agents under development. Artesunate and amodiaquine were included as additional control […]
# (§3) Values are the means ± standard deviation derived from three independent assays performed
# [2] = test system: Dd2-6R F2 C5; assay: SYBR green growth assay, Dd2-6R F2 C5; settings: Plasmodium falciparum
# Description: (§7) The drug was then washed off and the parasites were allowed to recover in normal growth media.
# [3] = test system: Dd2-HSP90; assay: microbe, parasite or virus in culture; type: cell-based, P. falciparum
# Procedure: as §1, §2, §3
# [4] = test system: Dd2-6R F2 B5; assay: SYBR green growth assay, Dd2-6R F2 B5; settings: for IC50: Plasmodium falciparum, DD2
# Description: as §7
# [5] = test system: Dd2-6R F4 D4; assay: SYBR green growth assay, Dd2-6R F4 D4; settings: Plasmodium falciparum
# Description: as §7
# [6] = test system: Dd2-PfCRT; assay: SYBR green growth assay, Dd2-PfCRT mutant; type: cell-based, P. falciparum
# Procedure: as §1, §2, §3
# [7] = test system: Dd2-DHODH; assay: SYBR green growth assay, Dd2-DHODH mutant; type: cell-based, P. falciparum
# Procedure: as §1, §2, §3
# [8] = test system: Dd2-6R F4 G7; assay: SYBR green growth assay, Dd2-6R F4 G7; settings: Plasmodium falciparum
# Description: as §7
# [9] = test system: Dd2-6R F2 D8; assay: SYBR green growth assay, Dd2-6R F2 D8; settings: Plasmodium falciparum
# Description: as §7
# [10] = test system: Dd2-CYTbQi; assay: SYBR green growth assay, Dd2-CYTbQi mutant; type: cell-based, P. falciparum
# Procedure: as §1, §2, §3
# [11] = test system: Pf K1; assay: microbe, parasite or virus in culture; type: cell-based; settings: Plasmodium falciparum
# Description: (§4) tested in duplicate from two independent experiments using a SYBR-Green based assay2.
# (§5) (1 picture or pasted object on this page, not shown here)
# [12] = test system: Pf 7G8; assay: microbe, parasite or virus in culture; type: cell-based; settings: Plasmodium falciparum
# Description: as §4, §5
# [13] = test system: Pf DD2; assay: microbe, parasite or virus in culture; type: cell-based; settings: Plasmodium falciparum
# Description: as §4, §5
# [14] = test system: Pf SB1; assay: microbe, parasite or virus in culture; type: cell-based; settings: Plasmodium falciparum
# Description: as §4, §5
# [15] = test system: Dd2; assay: [3H]-hypoxanthine incorporation assay, Dd2; type: cell-based, Plasmodium falciparum
# Procedure: (§6) 9 and 12 were tested for their antiplasmodial activity against a panel of Pf strains known to harbour mutations conferring resistance to novel agents under clinical development. Parasite growth inhibition is measured using the [3H]-hypoxanthine incorporation assay. IC50s are established for each strain (n ≥2) and compared to the IC50 of Dd2 (standard pan-resistant
# [16] = test system: Dd2 bc-1 ELQ-300; assay: [3H]-hypoxanthine incorporation assay, Dd2 bc-1 ELQ-300 resistant; type: cell-based, Plasmodium falciparum; settings: Dd2 bc-1 ELQ-300; read-out: IC50
# Procedure: as §6, with “Supplementary Table 3: Compound 9 and 12 retain their activity against Pf strains harbouring mutations to novel antimalarial agents in clinical development. Compound 9” for “9”, “pan-resistant […]” for “pan-resistant”
# [17] = test system: Dd2 PfATP4 NITD609; assay: [3H]-hypoxanthine incorporation assay, Dd2 PfATP4 NITD609 resistant; type: cell-based; settings: Plasmodium falciparum
# Procedure: as §6, with “Supplementary Table 3: Compound 9 and 12 retain their activity against Pf strains harbouring mutations to novel antimalarial agents in clinical development. Compound 9” for “9”, “pan-resistant […]” for “pan-resistant”
# [18] = test system: Pf NF54; assay: microbe, parasite or virus in culture; type: cell-based; settings: Plasmodium falciparum
# Description: as §4, §5
# [19] = test system: Pf W2; assay: microbe, parasite or virus in culture; type: cell-based; settings: Plasmodium falciparum
# Description: as §4, §5
# [20] = test system: Dd2 DHODH DSM265; assay: [3H]-hypoxanthine incorporation assay, Dd2 DHODH DSM265 resistant; type: cell-based; settings: Plasmodium falciparum
# Procedure: as §6, with “Supplementary Table 3: Compound 9 and 12 retain their activity against Pf strains harbouring mutations to novel antimalarial agents in clinical development. Compound 9” for “9”, “pan-resistant […]” for “pan-resistant”
# [21] = biological target: T1, acetylcholine esterase (AChE) (Homo sapiens, UniProt P22303); assay: AChE enzyme activity assay (CEREP); type: biochemical; settings: read-out: AChE IC50
# T1 construct: purchased CEREP, France (external assay service) 0363
# Procedure: An in vitro pharmacological profiling panel was specifically designed for the detection of potential high- risk clinical adverse drug reactions. The panel comprised of 26 diverse targets (6 enzymes, 2 transporters, 9 G-protein-coupled receptors (GPCRs), 5 ion channels along with hERG, M2, alpha1A and AchE) and was conduced externally by CEREP, France […]. […] Detailed methodology for in vitro pharmacological profiling assays provided by CEREP can be found at http://www.cerep.fr, with specific reference to the AChE (cat. no. 0363), Muscarinic M1 receptor (cat. no. 0091) and Adrenergic α1A receptor (cat. no. 2338) assays. For enzyme and kinase assays, the results were expressed as a percent inhibition of control-specific activity obtained in the presence of the test compound. The IC50 values (concentration causing a half-maximal inhibition of control-specific activity) and Hill coefficients (nH) were determined by nonlinear regression analysis of the inhibition/concentration–response curves using Hill equation curve fitting as described earlier.
# [22] = biological target: T2, hERG (Homo sapiens, UniProt Q12809); assay: electrophysiology-based hERG assay using IonWorks HT (CHO cells); type: cell-based; settings: hERG IC50
# T2 construct: expressed in transfected cells; host or cells: CHO cells
# Procedure: hERG IC50 was determined in an electrophysiology-based hERG assay using IonWorks HT (CHO cells) as described earlier.
# [23] = Plasmodium falciparum, DD2, Dd2, Supplementary Table 2
# [24] = Plasmodium falciparum, DD2, Dd2 parental, Supplementary Table 13
# T1 sequence (P22303 32-614): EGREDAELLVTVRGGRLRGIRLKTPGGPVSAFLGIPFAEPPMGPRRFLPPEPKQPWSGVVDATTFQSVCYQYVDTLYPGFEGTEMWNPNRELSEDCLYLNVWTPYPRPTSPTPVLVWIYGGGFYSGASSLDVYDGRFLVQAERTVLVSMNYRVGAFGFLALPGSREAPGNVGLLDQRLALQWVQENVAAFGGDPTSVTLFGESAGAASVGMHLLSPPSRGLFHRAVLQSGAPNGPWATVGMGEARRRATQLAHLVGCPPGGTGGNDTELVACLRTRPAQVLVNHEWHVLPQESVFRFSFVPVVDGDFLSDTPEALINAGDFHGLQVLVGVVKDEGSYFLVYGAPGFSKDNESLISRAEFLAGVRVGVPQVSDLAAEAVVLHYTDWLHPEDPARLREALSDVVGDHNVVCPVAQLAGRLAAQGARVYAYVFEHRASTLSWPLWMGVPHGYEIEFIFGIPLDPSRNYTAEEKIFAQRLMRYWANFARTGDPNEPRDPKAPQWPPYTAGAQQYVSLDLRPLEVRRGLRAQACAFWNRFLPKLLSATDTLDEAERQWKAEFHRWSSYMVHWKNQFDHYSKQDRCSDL
# T2 sequence (Q12809 whole entry): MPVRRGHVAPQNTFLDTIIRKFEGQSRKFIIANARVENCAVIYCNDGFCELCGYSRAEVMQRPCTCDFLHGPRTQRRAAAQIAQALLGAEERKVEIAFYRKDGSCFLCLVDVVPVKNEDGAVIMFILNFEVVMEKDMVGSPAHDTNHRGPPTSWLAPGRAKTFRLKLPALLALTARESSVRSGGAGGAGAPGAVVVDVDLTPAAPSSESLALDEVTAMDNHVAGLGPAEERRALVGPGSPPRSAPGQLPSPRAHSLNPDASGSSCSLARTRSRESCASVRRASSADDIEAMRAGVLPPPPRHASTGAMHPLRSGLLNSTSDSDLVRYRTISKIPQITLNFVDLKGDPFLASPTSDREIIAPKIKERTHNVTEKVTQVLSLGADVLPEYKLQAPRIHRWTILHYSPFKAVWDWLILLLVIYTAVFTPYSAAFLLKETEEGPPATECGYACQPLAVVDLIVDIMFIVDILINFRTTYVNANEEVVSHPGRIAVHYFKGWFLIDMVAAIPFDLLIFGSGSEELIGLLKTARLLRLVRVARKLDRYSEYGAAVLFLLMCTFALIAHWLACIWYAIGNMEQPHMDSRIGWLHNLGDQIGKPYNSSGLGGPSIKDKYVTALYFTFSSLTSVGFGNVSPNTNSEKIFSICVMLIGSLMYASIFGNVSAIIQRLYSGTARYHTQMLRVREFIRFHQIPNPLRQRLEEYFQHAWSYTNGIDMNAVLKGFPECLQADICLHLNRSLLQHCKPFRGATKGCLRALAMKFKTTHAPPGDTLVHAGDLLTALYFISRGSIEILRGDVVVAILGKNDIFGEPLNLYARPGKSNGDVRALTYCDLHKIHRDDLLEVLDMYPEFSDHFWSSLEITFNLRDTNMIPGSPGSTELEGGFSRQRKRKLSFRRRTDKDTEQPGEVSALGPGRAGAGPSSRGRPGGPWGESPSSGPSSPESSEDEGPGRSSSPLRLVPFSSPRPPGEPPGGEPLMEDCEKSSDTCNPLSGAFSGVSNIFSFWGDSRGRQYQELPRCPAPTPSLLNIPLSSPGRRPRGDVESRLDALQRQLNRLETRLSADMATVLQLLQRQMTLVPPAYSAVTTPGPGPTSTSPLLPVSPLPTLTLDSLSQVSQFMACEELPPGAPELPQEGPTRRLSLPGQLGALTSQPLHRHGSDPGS
compound,measurement,setting,value
C[C@H]1[C@H](OC(=O)CCC(=O)O)O[C@@H]2O[C@@]3(C)CC[C@H]4[C@H](C)CC[C@@H]1[C@@]24OO3 [Artesunate],IC50,[1]; [23],1.51 ± 0.2 nM
same,IC50,[1]; [24],2.6 ± 1.3 nM
same,IC50,[2],1.2 ± 0.1 nM
same,IC50,"[3]; Plasmodium falciparum, DD2",1.29 ± 0.2 nM
same,IC50,[4],1.6 ± 0.2 nM
same,IC50,[5],1.6 ± 0.9 nM
same,IC50,"[6]; Plasmodium falciparum, DD2",1.84 ± 0.3 nM
same,IC50,"[7]; Plasmodium falciparum, DD2",1.81 ± 0.3 nM
same,IC50,[8],1.6 nM
same,IC50,[9],1.4 ± 0.1 nM
same,IC50,"[10]; Plasmodium falciparum, DD2",1.26 ± 0.4 nM
Cc1nc2c(C#N)cccc2n1-c1ccc(C(=O)NC2CC2)s1 [Genz-669178],IC50,"[1]; Dd2, Supplementary Table 2, read-out: IC50",5.79 ± 1 nM
same,IC50,"[3]; Dd2-HSP90, mean ± SD, read-out: IC50",16.2 ± 2 nM
same,IC50,"[6]; Dd2-PfCRT, mean ± SD, read-out: IC50",5.07 ± 4 nM
same,IC50,"[7]; Dd2-DHODH, mean ± SD, read-out: IC50",76.8 ± 10 nM
same,IC50,"[10]; Dd2-CYTbQi, mean ± SD, read-out: IC50",9.94 ± 0.9 nM
O=C1C(O)=C([C@H]2CC[C@H](c3ccc(Cl)cc3)CC2)C(=O)c2ccccc21 [Atovaquone],IC50,[11],2.3 ± 0.8 nM
same,IC50,[12],2.3 ± 0.7 nM
same,IC50,[13],2 ± 0.02 nM
same,IC50,[14],> 2000 nM
"COc1cc2[nH]c(C)c(-c3ccc(Oc4ccc(OC(F)(F)F)cc4)cc3)c(=O)c2cc1Cl [ELQ-300, reference compound]",IC50,"[15]; Dd2, [3H]-hypoxanthine, read-out: IC50",20 nM
same,IC50,[16],125 nM
"C[C@H]1Cc2c([nH]c3cc(Cl)c(F)cc23)[C@@]2(N1)C(=O)Nc1ccc(Cl)cc12 [NITD609, reference compound]",IC50,[17],1.7 nM
same,IC50,"[15]; Plasmodium falciparum, DD2",0.6 nM
CCN(CC)CCCC(C)Nc1ccnc2cc(Cl)ccc12 (stereo not shown) [Chloroquine],IC50,[14],11.8 ± 4.5 nM
CCc1nc(N)nc(N)c1-c1ccc(Cl)cc1 [Pyrimethamine],IC50,[11],8560 ± 1980 nM
same,IC50,[12],10000 ± 1260 nM
same,IC50,[13],13800 ± 8620 nM
same,IC50,[18],28.3 ± 11 nM
same,IC50,[14],10.8 ± 4 nM
same,IC50,[19],15400 ± 2830 nM
COC1=C2C[C@@H](C)C[C@H](OC)[C@H](O)[C@@H](C)/C=C(\C)[C@H](OC(N)=O)[C@@H](OC)/C=C\C=C(/C)C(=O)NC(=CC1=O)C2=O [Geldanamycin],IC50,[1]; [23],176 ± 30 nM
same,IC50,"[6]; Plasmodium falciparum, DD2",204 ± 20 nM
same,IC50,"[7]; Plasmodium falciparum, DD2",257 ± 40 nM
same,IC50,"[10]; Plasmodium falciparum, DD2",169 ± 40 nM
CCCCN(CCCC)CC(O)c1cc(Cl)cc2c1-c1ccc(Cl)cc1/C2=C/c1ccc(Cl)cc1 (stereo not shown) [Lumefantrine],IC50,[1]; [24],15.6 ± 4.8 nM
same,IC50,[2],5.7 ± 1 nM
same,IC50,[4],6.8 ± 2 nM
same,IC50,[5],6.4 ± 2.4 nM
same,IC50,[8],5.1 nM
same,IC50,[9],6 ± 1.7 nM
"Cc1cc(Nc2ccc(S(F)(F)(F)(F)F)cc2)n2nc(C(C)(F)F)nc2n1 [DSM265, reference compound]",IC50,[20],48 nM
OC(c1cc(C(F)(F)F)nc2c(C(F)(F)F)cccc12)C1CCCCN1 (stereo not shown) [Mefloquine],IC50,[1]; [24],30.1 ± 7.2 nM
same,IC50,[2],12.1 nM
same,IC50,[4],11.7 ± 2.6 nM
same,IC50,[5],11.7 nM
same,IC50,[8],10.7 nM
same,IC50,[9],12 nM
CNc1nc(Nc2ccc(OCC(F)(F)F)c(C)n2)ncc1N1CCN[C@H](C)C1 [compound 6],IC50,[1]; [23],29.5 ± 3 nM
same,IC50,[1]; [24],38.7 ± 1.1 nM
same,IC50,[2],96.3 nM
same,IC50,"[3]; Plasmodium falciparum, DD2",27.9 ± 7 nM
same,IC50,[4],102 nM
same,increase in IC50 compared with the parental Dd2 line,[4]; compound 6-resistant Dd2-6R clones (five clones),3-6 fold and 3 fold
same,IC50,[5],98.9 nM
same,IC50,"[6]; Plasmodium falciparum, DD2",18.9 ± 1 nM
same,IC50,"[7]; Plasmodium falciparum, DD2",23.2 ± 5 nM
same,IC50,[8],112 nM
same,IC50,[9],95.7 nM
same,IC50,"[10]; Plasmodium falciparum, DD2",25.7 ± 5 nM
C[C@@H]1CC[C@H]2[C@@H](C)C(=O)O[C@@H]3O[C@@]4(C)CC[C@@H]1[C@]32OO4 [Artemisinin],IC50,[11],6.5 ± 2 nM
same,IC50,[12],1.3 ± 0.1 nM
same,IC50,[13],10.3 ± 2 nM
same,IC50,[18],7 ± 4 nM
same,IC50,[14],16.6 ± 5 nM
same,IC50,[19],6.5 ± 1 nM
CCN(CC)Cc1cc(Nc2ccnc3cc(Cl)ccc23)ccc1O [Amodiaquine],IC50,[1]; [23],9.83 ± 0.4 nM
same,IC50,"[3]; Plasmodium falciparum, DD2",8.96 ± 0.8 nM
same,IC50,"[6]; Plasmodium falciparum, DD2",8.86 ± 1 nM
same,IC50,"[7]; Plasmodium falciparum, DD2",10.7 ± 2 nM
same,IC50,"[10]; Plasmodium falciparum, DD2",9.9 ± 3 nM
"Cc1nc(Nc2ncc(N3CCN[C@H](C)C3)c(Nc3cc(C)n(C)n3)n2)ccc1F [compound 7, (R)-N4-(1,5-dimethyl-1H-pyrazol-3-yl)-N2-(5-fluoro-6-methylpyridin-2-yl)-5-(3-methylpiperazin-1-yl)pyrimidine-2,4-diamine]",IC50,[21],66000 nM
same,IC50,[22],> 33000 nM
